EC50 data for 22 compounds are collected here from US20230279016A1, “Tetrahydropyrazolopyrimidines and Related Analogs for Inhibiting YAP/TAZ-TEAD” (THE KATHOLIEKE UNIVERSITEIT LEUVEN, priority 2021, published 2023).

Common to all, as to type: cell-based
In assay [1] the test system is NCI-H2052 mesothelioma cell line. As to the kind of experiment: Mesothelioma cell line proliferation assay, NCI-H2052. The conditions noted are these: NCI-H2052, 6 days with compound, cell viability by ATPlite. As to the method:
(§1) Mesothelioma cell lines, NCI-H226 and NCI-H2052 (all sourced from the ATCC cell culture collection) are plated in 96-well plates (Corning® 96 Well White Polystyrene Microplate clear flat bottom, white polystyrene (TC-Treated)), at 1500 cells/well in full medium (RPMI 1640 ATCC modification with L-glutamine, HEPES, Phenol Red, Sodium Pyruvate, High glucose, Low sodium bicarbonate and 10% fetal bovine serum). Cells are incubated overnight at 37° C. in an incubator with 5% CO2. Then compounds, dissolved in DMSO, are added in dose-response. Cells are incubated with compound dilutions for another 6 days at 37° C. in an incubator with 5% CO2. Cell viability is quantitated using the ATPlite kit (Perkin-Elmer) and the luminescence is read-out using an Envision instrument (Perkin-Elmer). The amount of relative light units produced using the ATPlite kit is used to calculated percent of inhibition.
(§2) The activities of example compounds tested are depicted in the table below. The activity ranges A, B and C refer to EC50 values in the mesothelioma cell line proliferation assay as described as follows: “A”: EC50 <1 μM; “B” : 1 μM EC50 ≤10 μM and “C” : EC50 >10 μM. NT: not tested.
On the technique in general: ATP-based viability assays read luminescence as a measure of living cells.

Assay [2] has as its system YAP/TAZ-TEAD transcription. The assay is described as follows: Reporter gene assay for measuring the inhibition of YAP/TAZ-TEAD transcription (TEAD-responsive element luciferase reporter in Hek293T cells). Conditions: Hek293T cells transiently transfected with TEAD-responsive element luciferase reporter, 24 hours incubation. In short, it runs like this:
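Hek293T cells transiently transfected with TEAD-responsive luciferase reporter, exposed to compound for 24 h at 37° C/5% CO2, then read by luminescence. Percent inhibition normalized to vehicle (0%) and positive control inhibitor (100%); EC50 reported as activity ranges.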
Background: Reporter assays use an easily measured gene product as a stand-in for the process of interest.

In assay [3] the test system is NCI-H226 mesothelioma cell line. As to the kind of experiment: Mesothelioma cell line proliferation assay, NCI-H226. The conditions noted are these: NCI-H226, 6 days with compound, cell viability by ATPlite. The procedure: as §1, §2

What is called EC50 is the concentration that produces a half-maximal response. Regarding `C=CC(=O)NCC1Cc2c(cnn2C(F)F)N(c2ccc(C(F)(F)F)cc2)C1` (single isomer, unassigned) [Cpd. No. 084-En1, (R)- or (S)-N-((1-(difluoromethyl)-4-(4-(trifluoromethyl)phenyl)-4,5,6,7-tetrahydro-1H-pyrazolo[4,3-b]pyridin-6-yl)methyl)acrylamide], the EC50 in assay [1] (Homo sapiens, NCI-H2052, 144 h) was less than 1 µM; in assay [2] (Homo sapiens, HEK-293T, 24 h) it was less than 1 µM; in assay [3] (Homo sapiens, NCI-H226, 144 h), less than 1 µM.
As to `C=CC(=O)NCC1Cc2c(cnn2C(F)F)N(c2ccc(C(F)(F)F)cc2)C1` (single isomer, unassigned) [Cpd. No. 084-En2, (R)- or (S)-N-((1-(difluoromethyl)-4-(4-(trifluoromethyl)phenyl)-4,5,6,7-tetrahydro-1H-pyrazolo[4,3-b]pyridin-6-yl)methyl)acrylamide], the EC50 in assay [1], in assay [2] and in assay [3] was less than 1 µM each time.
Take `C=CC(=O)NC[C@H]1Cc2nn(C(F)F)cc2N(c2ccc(C(F)(F)F)cc2)C1` (single isomer, unassigned) [Cpd. No. 085-En1, (R)- or (S)-N-(2-(difluoromethyl)-4-(4-(trifluoromethyl)phenyl)-4,5,6,7-tetrahydro-2H-pyrazolo[4,3-b]pyridin-6-yl)methyl)acrylamide]: the EC50 in assay [1], in assay [2] and in assay [3] was less than 1 µM throughout.
On to `C=CC(=O)NCC1Cc2nn(C(F)F)cc2N(c2ccc(C(F)(F)F)cc2)C1` (single isomer, unassigned) [Cpd. No. 085-En2, (R)- or (S)-N-((2-(difluoromethyl)-4-(4-(trifluoromethyl)phenyl)-4,5,6,7-tetrahydro-2H-pyrazolo[4,3-b]pyridin-6-yl)methyl)acrylamide], for which the EC50 in assay [1] (Homo sapiens, NCI-H2052, 144 h) was less than 1 µM; in assay [2] (Homo sapiens, HEK-293T, 24 h) it was less than 1 µM; in assay [3] (Homo sapiens, NCI-H226, 144 h) it was less than 1 µM.
Turning to `FC(F)(F)c1ccc(N2CC(C3CC(Br)=NO3)Cn3nccc32)cc1` (single isomer, unassigned) [Cpd. No. 086-Dia1, 3-bromo-5-(4-(4-(trifluoromethyl)phenyl)-4,5,6,7-tetrahydropyrazolo[1,5-a]pyrimidin-6-yl)-4,5-dihydroisoxazole], the EC50 is less than 1 µM in assay [1] (Homo sapiens, NCI-H2052, 144 h); less than 1 µM in assay [2] (Homo sapiens, HEK-293T, 24 h); less than 1 µM in assay [3] (Homo sapiens, NCI-H226, 144 h).
Regarding `FC(F)(F)c1ccc(N2CC(C3CC(Br)=NO3)Cn3nccc32)cc1` (single isomer, unassigned) [Cpd. No. 086-Dia2, 3-bromo-5-(4-(4-(trifluoromethyl)phenyl)-4,5,6,7-tetrahydropyrazolo[1,5-a]pyrimidin-6-yl)-4,5-dihydroisoxazole], the EC50 in assay [1], in assay [2] and in assay [3] was less than 1 µM each time.
Turning to `C=CC(=O)NCC1CN(c2ccc(C(F)(F)F)cc2)c2ccnn2C1` (stereo not drawn) [Cpd. No. 002, N-((4-(4-(trifluoromethyl)phenyl)-4,5,6,7-tetrahydropyrazolo[1,5-a]pyrimidin-6-yl)methyl)acrylamide], the EC50 was less than 1 µM in assay [1] (Homo sapiens, NCI-H2052, 144 h); less than 1 µM in assay [2] (Homo sapiens, HEK-293T, 24 h); less than 1 µM in assay [3] (Homo sapiens, NCI-H226, 144 h).
As for `C=CC(=O)NCC1CN(c2ccc(Cl)cc2)c2ccnn2C1` (stereo not drawn) [Cpd. No. 005, N-((4-(4-chlorophenyl)-4,5,6,7-tetrahydropyrazolo[1,5-a]pyrimidin-6-yl)methyl)acrylamide], the EC50 in assay [1] (Homo sapiens, NCI-H2052, 144 h) was less than 1 µM; in assay [2] (Homo sapiens, HEK-293T, 24 h), less than 1 µM; in assay [3] (Homo sapiens, NCI-H226, 144 h) it was less than 1 µM.
In the case of `C=CC(=O)NCC1CN(c2ccc(C(F)(F)F)nc2)c2ccnn2C1` (stereo not drawn) [Cpd. No. 007, N-((4-(6-(trifluoromethyl)pyridin-3-yl)-4,5,6,7-tetrahydropyrazolo[1,5-a]pyrimidin-6-yl)methyl)acrylamide], the EC50 in assay [1] (Homo sapiens, NCI-H2052, 144 h) is more than 10 µM; in assay [2] (Homo sapiens, HEK-293T, 24 h), less than 1 µM; in assay [3] (Homo sapiens, NCI-H226, 144 h), more than 10 µM.
Turning to `C=CC(=O)NCC1CN(c2ccc(OC(F)(F)F)cc2)c2ccnn2C1` (stereo not drawn) [Cpd. No. 011, N-((4-(4-(trifluoromethoxy)phenyl)-4,5,6,7-tetrahydropyrazolo[1,5-a]pyrimidin-6-yl)methyl)acrylamide], the EC50 in assay [1] is less than 1 µM; in assay [2] (Homo sapiens, HEK-293T, 24 h) it was less than 1 µM; in assay [3] (Homo sapiens, NCI-H226, 144 h) it was less than 1 µM.
On to `C=CC(=O)NCC1CN(c2ccc(OC(F)F)cc2)c2ccnn2C1` (stereo not drawn) [Cpd. No. 012, N-((4-(4-(difluoromethoxy)phenyl)-4,5,6,7-tetrahydropyrazolo[1,5-a]pyrimidin-6-yl)methyl)acrylamide], for which the EC50 in assay [1] is less than 1 µM; in assay [2] (Homo sapiens, HEK-293T, 24 h) it was less than 1 µM; in assay [3] (Homo sapiens, NCI-H226, 144 h), less than 1 µM.
Take `C=CC(=O)NCC1CN(c2ccc(C(C)C)cc2)c2ccnn2C1` (stereo not drawn) [Cpd. No. 013, N-((4-(4-isopropylphenyl)-4,5,6,7-tetrahydropyrazolo[1,5-a]pyrimidin-6-yl)methyl)acrylamide]: the EC50 is less than 1 µM in assay [1] (Homo sapiens, NCI-H2052, 144 h); less than 1 µM in assay [2] (Homo sapiens, HEK-293T, 24 h); less than 1 µM in assay [3] (Homo sapiens, NCI-H226, 144 h).
`C=CC(=O)NCC1CN(c2ccc(C(F)(F)F)c(F)c2)c2ccnn2C1` (stereo not drawn) [Cpd. No. 015, N-((4-(3-fluoro-4-(trifluoromethyl)phenyl)-4,5,6,7-tetrahydropyrazolo[1,5-a]pyrimidin-6-yl)methyl)acrylamide]: the EC50 is less than 1 µM in assay [1] (Homo sapiens, NCI-H2052, 144 h); less than 1 µM in assay [2] (Homo sapiens, HEK-293T, 24 h); less than 1 µM in assay [3] (Homo sapiens, NCI-H226, 144 h).
With `C=CC(=O)NCC1CN(c2ccc(C(F)(F)F)cc2F)c2ccnn2C1` (stereo not drawn) [Cpd. No. 016, N-((4-(2-fluoro-4-(trifluoromethyl)phenyl)-4,5,6,7-tetrahydropyrazolo[1,5-a]pyrimidin-6-yl)methyl)acrylamide], the EC50 in assay [1] was less than 1 µM; in assay [2] (Homo sapiens, HEK-293T, 24 h), less than 1 µM; in assay [3] (Homo sapiens, NCI-H226, 144 h), less than 1 µM.
In the case of `CS(=O)(=O)NCC1CN(c2ccc(C(F)(F)F)cc2)c2ccnn2C1` (stereo not drawn) [Cpd. No. 027, N-((4-(4-(trifluoromethyl)phenyl)-4,5,6,7-tetrahydropyrazolo[1,5-a]pyrimidin-6-yl)methyl)methanesulfonamide], the EC50 is more than 10 µM in assay [1] (Homo sapiens, NCI-H2052, 144 h); more than 20 µM in assay [2] (Homo sapiens, HEK-293T, 24 h); more than 10 µM in assay [3] (Homo sapiens, NCI-H226, 144 h).
`C=CC(=O)NCC1CN(c2ccc(C(F)(F)F)cc2)c2cc(C)nn2C1` (stereo not drawn) [Cpd. No. 029, N-((2-methyl-4-(4-(trifluoromethyl)phenyl)-4,5,6,7-tetrahydropyrazolo[1,5-a]pyrimidin-6-yl)methyl)acrylamide]: the EC50 in assay [1] (Homo sapiens, NCI-H2052, 144 h) is less than 1 µM; in assay [2] (Homo sapiens, HEK-293T, 24 h), less than 1 µM; in assay [3] (Homo sapiens, NCI-H226, 144 h), less than 1 µM.
Take `C=CC(=O)NCC1CN(c2ccc(C(F)(F)F)cc2)c2cc(C3CC3)nn2C1` (stereo not drawn) [Cpd. No. 031, N-((2-cyclopropyl-4-(4-(trifluoromethyl)phenyl)-4,5,6,7-tetrahydropyrazolo[1,5-a]pyrimidin-6-yl)methyl)acrylamide]: the EC50 in assay [1] (Homo sapiens, NCI-H2052, 144 h) was less than 1 µM; in assay [2] (Homo sapiens, HEK-293T, 24 h) it was less than 1 µM; in assay [3] (Homo sapiens, NCI-H226, 144 h) it was less than 1 µM.
As to `C=CC(=O)NCC1CN(c2ccc(C(F)(F)F)cc2)c2cc(CC3CC3)nn2C1` (stereo not drawn) [Cpd. No. 032, N-((2-(cyclopropylmethyl)-4-(4-(trifluoromethyl)phenyl)-4,5,6,7-tetrahydropyrazolo[1,5-a]pyrimidin-6-yl)methyl)acrylamide], the EC50 is less than 1 µM in assay [1] (Homo sapiens, NCI-H2052, 144 h); less than 1 µM in assay [2] (Homo sapiens, HEK-293T, 24 h); less than 1 µM in assay [3] (Homo sapiens, NCI-H226, 144 h).
`C=CC(=O)NCC1CN(c2ccc(C(F)(F)F)cc2)c2cc(C(F)(F)F)nn2C1` (stereo not drawn) [Cpd. No. 034, N-((2-(trifluoromethyl)-4-(4-(trifluoromethyl)phenyl)-4,5,6,7-tetrahydropyrazolo[1,5-a]pyrimidin-6-yl)methyl)acrylamide]: the EC50 in assay [1] (Homo sapiens, NCI-H2052, 144 h) is less than 1 µM; in assay [2] (Homo sapiens, HEK-293T, 24 h), less than 1 µM; in assay [3] (Homo sapiens, NCI-H226, 144 h), less than 1 µM.
For `C#CC(=O)NCC1CN(c2ccc(C(F)(F)F)cc2)c2ccnn2C1` (stereo not drawn) [Cpd. No. 038, N-((4-(4-(trifluoromethyl)phenyl)-4,5,6,7-tetrahydropyrazolo[1,5-a]pyrimidin-6-yl)methyl)propiolamide], the EC50 in assay [1] (Homo sapiens, NCI-H2052, 144 h) was less than 1 µM; in assay [2] (Homo sapiens, HEK-293T, 24 h), less than 1 µM; in assay [3] (Homo sapiens, NCI-H226, 144 h), 1 to 10 µM.
Turning to `C=C(F)C(=O)NCC1CN(c2ccc(C(F)(F)F)cc2)c2ccnn2C1` (stereo not drawn) [Cpd. No. 039, 2-fluoro-N-((4-(4-(trifluoromethyl)phenyl)-4,5,6,7-tetrahydropyrazolo[1,5-a]pyrimidin-6-yl)methyl)acrylamide], the EC50 is less than 1 µM in assay [1] (Homo sapiens, NCI-H2052, 144 h); less than 1 µM in assay [2] (Homo sapiens, HEK-293T, 24 h); less than 1 µM in assay [3] (Homo sapiens, NCI-H226, 144 h).
On to `C=C(C)C(=O)NCC1CN(c2ccc(C(F)(F)F)cc2)c2ccnn2C1` (stereo not drawn) [Cpd. No. 040, N-((4-(4-(trifluoromethyl)phenyl)-4,5,6,7-tetrahydropyrazolo[1,5-a]pyrimidin-6-yl)methyl)methacrylamide], for which the EC50 in assay [1] (Homo sapiens, NCI-H2052, 144 h) was more than 10 µM; in assay [2] (Homo sapiens, HEK-293T, 24 h), less than 1 µM; in assay [3] (Homo sapiens, NCI-H226, 144 h) it was less than 1 µM.
